The conditions of assay [1]: relative to parent peptide or to the 11-13 sequence; cited from earlier work.
Assay [2] relates to C. albicans. Nature of the assay: C. albicans colony formation (CFU viability). The class given is cell-based, Candida albicans. The note with it: for C. albicans viability / effectiveness against C. albicans compared with fluconazole: FIG. 4; for effectiveness against C. albicans compared with fluconazole: 10^−6 to 10^−4 M, same molar concentration as fluconazole; for ability of C albicans to form colonies: FIG. 3, 10^−12 to 10^−4 M, p<0.01 vs. control. On the procedure:
Clinical isolates of C. albicans were obtained from the collection of the Department of Microbiology, Ospedale Maggiore di Milano. Cultures of C. albicans were maintained on Sabouraud's agar slants and periodically transferred to Sabouraud's agar plates and incubated for 48 hours at 28° C. To prepare stationary growth-phase yeast, a colony was taken from the agar plate, transferred into 30 ml of Sabouraud-dextrose broth, and incubated for 72 hours at 32° C. Cells were centrifuged at 1000× g for ten minutes, and the pellet was washed twice with distilled water. Cells were counted and suspended in Hank's balanced salt solution (“HBSS”) to the desired concentration.
Cells were then washed in cold distilled water and diluted with HBSS to a concentration of 100 organisms/ml. One-milliliter aliquots were then dispensed on blood agar plates and incubated for 48 hours at 37° C. The organism's viability was estimated from the number of colonies formed.
[…] The effects of forskolin and ddAdo on the ability of C. albicans to form colonies were determined according to the procedures described in Example II.

For assay [3] the following is noted: relative to L-form tripeptide alpha-MSH (11-13); cited from earlier work.
Assay [4] relates to C. albicans. Nature of the assay: C. albicans germ tube formation induced by horse serum. As to conditions: 10^−6 M, 60 minutes at 37° C., germ tubes induced by horse serum. The class given is cell-based, Candida albicans. On the procedure: C. albicans from stationary phase cultures were washed twice with distilled water and suspended in HBSS to a final concentration of 2×10^6/ml. Hyphal growth was induced by addition of 10% inactivated horse serum (GIBCO/BRL, Paisley, Great Britain) to yeast incubated for 45 minutes at 37° C. with continuous shaking. […] The percentage of filamentous cells was evaluated under a light microscope with the aid of a hemocytometer. Experiments were run in triplicate and at least 200 cells were scored. Photomicrographs were taken with a MC100 camera attached to an Axioskop Zeiss microscope.

For assay [5], the system named is HIV-1. As to conditions: FIG. 11; 10^−5 M. The text has this:
(§1) The chronically HIV-1 infected promonocytic U1 cell line is an in vitro model of latent HIV infection in monocytes. These cells carry two integrated proviral copies of HIV, and constitutive expression of HIV is very low. Viral replication, however, as measured by RNA transcription, p24 antigen, or reverse transcriptase release, can be activated with different stimuli such as TNF-α, IL-6, IL-10, PMA or crowding of cells.
(§2) Crowding was achieved by seeding U1 cells at a density of 2×10^5/ml and maintaining them in culture at 37° C. in 5% CO2 without changing media for seven days. Cultures activated with cytokines or PMA were maintained for only 48 hours. Supernatants were then removed by centrifugation and assayed for p24 antigen using commercially available ELISA kits from Cellular Products, Inc. in Buffalo, N.Y., USA. Reverse transcriptase releases were also measured using a commercially available kit, ELISA Retrosys RT assay from Innovagen, Lund, Sweden.

Another assay has as its system S. aureus (ATCC 29213). Nature of the assay: S. aureus colony formation (viability). The class given is cell-based, Staphylococcus aureus. As to conditions: FIG. 1; significant at peptide concentrations of 10^−12 to 10^−4 M; 2 h at 37° C. On the procedure: (§3) Cultures of S. aureus (ATCC 29213) were obtained from the collection of the Department of Microbiology, Ospedale Maggiore di Milano. […] Cells were then washed in cold distilled water and diluted with HBSS to a concentration of 100 organisms/ml. One-milliliter aliquots were dispensed on blood agar plates and incubated for 24 hours at 37° C. Viability of the microorganisms was estimated from the colonies formed. In another set of experiments, 500 units of urokinase, a S. aureus growth enhancer, were also incubated with the bacteria (10^5/100 ml ) for four hours at 37° C. in a shaking water bath together with the peptides.

Another assay relates to S. aureus. Put plainly: Urokinase induced growth of S. aureus. The class given is cell-based, Staphylococcus aureus. The note with it: FIG. 2; 10^−6 M peptide; 500 units urokinase, 4 h. On the procedure: as §3
Assay [6] concerns C. albicans. Nature of the assay: cAMP content in permeabilized C. albicans (enzyme immunoassay). It is filed as cell-based, Candida albicans. The note with it: FIG. 7; 10^−6 M, three minutes. On the procedure:
The reactions were stopped after three minutes by the addition of ice cold ethanol. cAMP levels were measured in duplicate using a commercial enzyme immunoassay kit (Amersham, United Kingdom) after extraction via the liquid-phase method according to the manufacturer's instructions.

For a further assay, the system named is HIV-1 RNA. As to conditions: FIG. 12; PMA stimulated U1 cells.
Another assay has as its system NF-κB. On the procedure:
Cells were washed once with cold PBS, and twice with buffer A (10 mM Hepes pH 7.9, 1.5 mM MgCl2, 10 mM KCl, 0.5 mM PMSF and 0.5 mM DTT), centrifuged, and incubated for ten minutes on ice in buffer A plus 0.1% NP-40. Afterwards, the supernatants were removed, and the nuclear pellets were resuspended in 15 μl of buffer C (20 mM Hepes pH 7.9, 1.5 mM MgCl2, 0.42 M KCl, 0.2 mM EDTA, 25% glycerol, 0.5 mM PMSF, and 0.5 mM DTT), incubated for 15 minutes on ice, mixed, and then centrifuged. The supernatants were diluted with 75 μl of modified buffer D (20 mM Hepes, pH 7.9, 0.05 mM KCl, 0.2 mM EDTA, 20% glycerol, 0.5 mM PMSF, and 0.5 mM DTT) and stored at −80° C. […] Each oligonucleotide was annealed to its complementary strand and end-labeled with ^32P-γ-ATP using polynucleotide kinase. For the determination of specific bands, nuclear extracts were first incubated with 100 fold excess unlabeled probe for five minutes, before incubation with a labeled probe. […] The gels were dried and autoradiographed.

The test system of assay [7] is C. albicans. Nature of the assay: Neutrophil killing of C. albicans. The class given is cell-based, human neutrophils; Candida albicans. The note with it: FIG. 6; 10^−12 to 10^−4 M; p<0.01. On the procedure: Venous blood (20 ml) from healthy volunteers was anticoagulated with heparin. Neutrophils were then isolated using dextran sedimentation and centrifugation with Ficoll-Hypaque (Sigma Chemical Co., St. Louis, Mo., USA). Erythrocytes were lysed via hypotonic shock with the resulting neutrophils representing at least 97% of the cell suspension. Cell viability, estimated by trypan blue exclusion, was greater than 98%. Neutrophils were resuspended in HBSS for the experiments. […] After incubation, the culture tubes were placed on ice to stop growth, and extracellular organisms were washed twice with centrifugation at 1000-× g at 4° C. A 2.5% sodium deoxycholate solution was added to the suspension, and the tubes were shaken for five minutes. Cold distilled water was then added to obtain a suspension of 10^6 cells/ml. Two 1/100 serial dilutions in HBSS were made to obtain a final suspension of 100 cells/ml. One-milliliter aliquots were then dispensed on blood agar plates and incubated for 48 hours at 37° C. Colony forming units were counted at the end of the incubation period with experiments running in triplicate and repeated using blood from five different donors.

Assay [8] relates to HIV-1. The note with it: FIG. 10; broad range of concentrations; TNF-α 10 ng/ml.
Source text: as §1
Pilot experiments were first performed to determine optimal cell density, stimuli concentration, and kinetics of HIV-1 p24 antigen production using these culture conditions. Before use, cells were washed three times with HBSS to remove extracellular viruses.
as §2

For “8-13 sequence: alpha-MSH 8-13 fragment (RWGKPV; Designed polypeptide with anti-inflammatory, anti-microbial, anti-fungal, and anti-viral properties.)”, the antipyretic potency result in [1] was “greater than that of the 11-13 sequence”.

For the substance “9-13 sequence: alpha-MSH 9-13 fragment (WGKPV; Designed polypeptide with anti-inflammatory, anti-microbial, anti-fungal, and anti-viral properties.)”, in assay [1], the antipyretic potency entry is listed as “almost devoid of activity”.

For “10-13 sequence: alpha-MSH (11-13) with glycine added to form the 10-13 sequence (GKPV; Designed pollypeptide with anti-inflammatory, anti-microbial, anti-fungal, and anti-viral properties.)”, the antipyretic potency entry in assay [1] is “slightly decreased potency”.

On to “ACTH (1-39): adrenocorticotropic hormone (1-39) (SYSMEHFRWGKPVGKKRRPVKVYPAGEDDEASEAFPLEF; Designed polypeptide with anti-inflammatory, anti-microbial, anti-fungal, and anti-viral properties/naturally occurring peptide.; listed as Homo sapiens) [reference compound]”, for which the C. albicans viability result with C. albicans [2] is given as “did not reduce”.

On to “ACTH fragment (18-39): ACTH fragment (18-39) (CLIP) (RPVKVYPAGEDDEASEAFPLEF; Designed polypeptide with anti-inflammatory, anti-microbial, anti-fungal, and anti-viral properties.) [reference compound]”, for which the C. albicans viability result in the assay on C. albicans [2] was “did not reduce”.

For the substance “Ac-[D-K11]-alpha-MSH 11-13-NH2 [reference compound]”, in [3], the “anti-inflammatory activity / general potency” value was “same general potency”.

For the substance “HFRWGKPV (Ac-HFRWGKPV-NH2) [alpha-MSH (6-13)]”, the “effectiveness against C. albicans compared with fluconazole” value (“effectiveness … compared with fluconazole” below) in the assay with C. albicans [2] was “most effective”. The “reduction in the number of filamentous cells” value in the assay with C. albicans [4] is listed as “approximately 50%”.

Consider “Lysine-Proline-Valine [alpha-MSH (11-13)]”, for which the “reverse transcriptase release from U1 cells induced by IL-6, IL-10, PMA and in crowding condition” value in the assay with HIV-1 [5] is listed as “inhibited”. For the same substance, in the assay on S. aureus (ATCC 29213), the “S. aureus colony formation” value is listed as “inhibited”. The “growth enhancing effect of urokinase on S. aureus” value in the assay on S. aureus was “significantly countered”. In addition, the “cAMP content in C. albicans” value in the assay on C. albicans [6] is “enhanced”. Moreover, in the assay with HIV-1 RNA, the “transcription of spliced and unspliced HIV-1 RNA” value was “inhibited”. Also, in the assay on NF-κB, the “NF-κB activation, TNF-α stimulated cells” value is listed as “significantly reduced” and the “NF-κB activation, resting cells” value is on record as “did not alter”. The “neutrophil killing of C. albicans” value in the assay on C. albicans [7] is reported as “enhanced”. In the assay with C. albicans [2], the “ability of C albicans to form colonies” value is on record as “greatly reduced” and the “effectiveness … compared with fluconazole” value is “most effective”. The “growth of C. albicans relative to the control group” value with C. albicans [2] (FIG. 8, p<0.01) is given as “significantly inhibited”.

For MEHFRWG [alpha-MSH sequence (4-10)], the “anti-inflammatory activity / general potency” value in assay [3] is “little antipyretic and anti-inflammatory activity”.

As for SYSMEHFRWGKPV [alpha-MSH (1-13)], in the assay with S. aureus (ATCC 29213), the “S. aureus colony formation” value is “inhibited”. In the assay on S. aureus, the “growth enhancing effect of urokinase on S. aureus” value is given as “significantly countered”. Further, the “p24 antigen release from TNF-α stimulated U1 cells” value with HIV-1 [8] is reported as “significantly inhibited”. The “cAMP content in C. albicans” value in the assay with C. albicans [6] is recorded as “enhanced”. The “neutrophil killing of C. albicans” value in the assay on C. albicans [7] is recorded as “enhanced”. In addition, in the assay on C. albicans [2], the “ability of C albicans to form colonies” value is listed as “greatly reduced” and the “effectiveness … compared with fluconazole” value is “most effective”. For the same substance, in the assay with C. albicans [4], the “reduction in the number of filamentous cells” value was 28-32%.

[Nle^4, D-Phe^7]-alpha-MSH: the antipyretic potency result in [1] is reported as “approximately ten times more potent”.

On to “dideoxyadenosine [ddAdo, reference compound]”, for which the “effect of ddAdo on alpha-MSH (1-13) and (11-13) inhibition of C. albicans growth” value in the assay with C. albicans [2] (FIG. 9, ddAdo 25, 50, and 100×10^−5 M for two hours, then peptides two hours) is listed as “reverse the effect”.

The values above are taken from patent publication US7402559B2, “Composition and method of treatment for urogenital conditions” (MSH Pharma, Incorporated, priority 1999, dated 2008).
